These results are taken from patent US12390464B2, “Treatment of EGFR mutant-related cancers using a combination of EGFR and CDK4/6 inhibitors” (BETA PHARMA, INC., priority 2019, dated 2025).

The test system of test [1] is HCC827 tumors (delE746-A750 activating mutation). The test is described as follows: Antitumor activity in the HCC827 mouse xenograft model. It is filed as in vivo. The settings on record: oral QD; for Tumor Weight: tumors harvested day 35, mean ± SD, n = 8; for Tumor Weight Inhibition Rate: tumors harvested day 35. Here is the method: Cell Culture and Implantation. HCC827 cells were cultured in a CO2 incubator in culture media containing modified RPMI (Hyclone, Cat: SH30809.01); 10% fetal bovine serum (Gibco, Cat: 10099-141); 100 U/ml penicillin and 100 μg/ml streptomycin (Hyclone, Cat: SV30010). Cells were digested with 0.25% trypsin (Hyclone, Cat: SH30042.01) and subcultured every four days. When the required cells was in the logarithmic growth phase, the cell counts were collected and the tumors were subcutaneously implanted in Balb/c nude female mice (14-19 g) at 1×10^7/0.2 mL/mouse (50% Matrigel CORNING, Cat: 354234) in the right back side of each mouse. 8 days after implantation, 56 mice with tumor volume of 132-289 mm^3 were selected and randomly divided into 7 groups according to tumor volume and body weight.
Test Sample Preparation Formulation and Administration. A stock solution of 1 as the methanesulfonate salt was prepared at 0.3 mg/mL in normal saline. A stock solution of 2 as the hydrochloride salt was prepared 2.0 mg/mL in sterile water. The vehicle control was a solution of 0.5% sodium carboxymethyl cellulose in sterile water. All stock solutions were stored at 2-8° C. and prepared fresh on a weekly basis. The stock solutions were administered orally either individually or in combination at the indicated salt dosages depicted in FIG. 1 and Table 2 once a day for 14 days. Dosing was suspended when body weight lost more than 15%.
Tumor Volume Determination and Data Analysis. The tumor volumes were determined twice per week by measuring the length and width of each tumor with a Vernier caliper and calculating the tumor volume. All tumors were harvested on day 35 and weighed. The Tumor Weight Inhibition Rate (IRTW%) was calculated via the equation: IRTW%=(1−(TW(treated)/TW(control)))×100%, where TW is defined as tumor weight. Histograms were generated using Prism GraphPad (mean±S.E.M.), and T analysis was used for statistical analysis. A p value less than 0.05 represents a significant difference between groups and a p value less than 0.01 represents a highly significant difference between groups.

For test [2], the system named is kinase domain of the T790M double mutant. The settings on record: cited from earlier work.
Test [3] has as its system MCF7 human breast cancer cell line. The settings on record: cited from earlier work.

Where “and” joins values, the source holds several entries; their conditions need not be identical. Equal values may be shown once.

Consider `C=CC(=O)Nc1cc(Nc2nccc(-c3cn(C)c4ccccc34)n2)c(OC)cc1OCCN(C)C` [Compound 1, N-[2-[2-(dimethylamino)ethoxy]-4-methoxy-5-[[4-(1-methyl-1H-indol-3-yl)-2-pyrimidinyl]amino]phenyl]-2-propenamide], for which, in test [1] (1 at 3 mg/kg alone), the “Tumor Weight” value turned out to be 0.1423 ± 0.1152 g. In addition, in test [1] (1 at 3 mg/kg alone, 3 mg/kg), the “Tumor Weight Inhibition Rate” value was 83.1% and 83.1^f %. Moreover, the “inhibition of EGFR T790M double mutant kinase domain” value in test [2] is “effectively inhibits”.

`CCN1CCN(Cc2ccc(Nc3ncc(F)c(-c4ccc5nn(C)c(C(C)C)c5c4)n3)nc2)CC1` [Compound 2, N-[5-[(4-ethyl-1-piperazinyl)methyl]-2-pyridinyl]-5-fluoro-4-[2-methyl-3-(1-methylethyl)-2H-indazol-5-yl]-2-pyrimidinamine]: in test [1] (2 at 20 mg/kg alone), the “Tumor Weight Inhibition Rate” value is recorded as 30.2% and the “Tumor Weight” value is recorded as 0.5864 ± 0.2235 g. Moreover, the “in vitro activity in MCF7 cell line” value in test [3] is reported as “potent in vitro activity”.
